In US20080220140A1, “USE OF PROPENYLPHENYL GLYCOSIDES FOR ENHANCING SWEET SENSORY IMPRESSIONS” (SYMRISE GmbH & Co. KG, priority 2007, published 2008):

Key:
[1] = Low-fat yoghurts with reduced sugar, sensory duo test with 16 panellists; assay type: in vivo; conditions: yoghurt 0.1% fat, 8% versus 10% sucrose; compound 1 0.015%, hesperetin 0.01%
Procedure: Comparison preparation with sugar (A) Comparison preparation with reduced sugar content […] Preparations according to the invention with reduced sugar content and compound 1 (C) Comparison preparation with reduced sugar content and hesperetin (D)
The ingredients were mixed and cooled at 5° C.

[2] = Enhancement of the sweet impression of sucrose-containing yoghurt, rated 1-10 by a group of experts; assay type: in vivo; conditions: 200 ppm in yoghurt (0.5% fat content), sucrose 5%
Procedure: In order to quantify the enhancement of a sweet impression by addition of the propenylphenyl glycosides to be used according to the invention, the sweetness of sucrose-containing yoghurt (0.5% fat content) and of samples containing the same amount of sucrose and in addition a specific concentration of the propenylphenyl glycosides of formula (I) to be used according to the invention was determined by a group of experts (rating 1 [extremely slightly sweet] to 10 [extremely sweet]). Evaluation was carried out by calculating the enhancement (in %) of the sweetness impression from the average values of the assessments of the yoghurts containing sucrose (a) or sucrose and propenylphenyl glycoside (b).

Compound	Compensation of the loss of sweetness as a result of sugar reduction [1]	% Enhancement of the sweetness impression ([2]; (16/10), p < 0.05)	Sweetness impression (1-10) b) with ([2]; rating 1 extremely slightly sweet to 10 extremely sweet)
COc1ccc(C2CC(=O)c3c(O)cc(O)cc3O2)cc1O (stereo not drawn) [hesperetin, reference compound]	less good results	–	–
C=CCc1ccc(O[C@@H]2O[C@H](CO)[C@@H](O)[C@H](O)[C@H]2O)cc1 [compound 1, 1-O-[4-(propen-2-enyl)phenyl]-D-glucopyranoside]	–	+24%	4.9 ± 1.4
